This note sets out measurements from ChEMBL document CHEMBL1122447, “2-Acetylpyridine thiosemicarbazones. 5. 1-[1-(2-Pyridyl)ethyl]-3-thiosemicarbazides as potential antimalarial agents” (1983).

Experiment [1] relates to Plasmodium berghei. The experiment is described as follows: Increased mean survival time in drug-sensitive Plasmodium berghei infected mice (Mus musculus) at 40 mg/kg dose. The experiment is classed as functional.
Experiment [2] concerns Plasmodium berghei. The experiment is described as follows: Increased mean survival time in drug-sensitive Plasmodium berghei infected mice (Mus musculus) at 640 mg/kg; toxic in 2 of 5. The experiment is classed as functional.
Experiment [3] deals with Plasmodium berghei. Kind of experiment: Increase in mean survival time in drug-sensitive Plasmodium berghei infected mice (Mus musculus) at 160 mg/kg dose. It is filed as functional.
For experiment [4], the system named is Plasmodium berghei. Kind of experiment: Antimalarial activity against Plasmodium berghei infected mice (Mus musculus) at 160 mg/kg; toxic in 5 of 5. It is filed as functional, organism-based. More on the design: dose 160 mg/kg.
The subject of experiment [5] is Plasmodium berghei. The experiment is described as follows: Antimalarial activity against Plasmodium berghei infected mice (Mus musculus) at 640 mg/kg; toxic in 5 of 5. It is filed as functional, organism-based. More on the design: dose 640 mg/kg.
Experiment [6] deals with Plasmodium berghei. The experiment is described as follows: Increased mean survival time in drug-sensitive Plasmodium berghei infected mice (Mus musculus) at 320 mg/kg; cured 5 of 5. It is filed as functional, organism-based. Also noted: dose 320 mg/kg.
Experiment [7] relates to Plasmodium berghei. The experiment is described as follows: Increased mean survival time in drug-sensitive Plasmodium berghei infected mice (Mus musculus) at 80 mg/kg; cured 1 of 5. The experiment is classed as functional, organism-based. More on the design: dose 80 mg/kg.
In experiment [8] the test system is Plasmodium berghei. The experiment is described as follows: Increased mean survival time in drug-sensitive Plasmodium berghei infected mice (Mus musculus) at 160 mg/kg; cured 3 of 5. It is filed as functional, organism-based. Also noted: dose 160 mg/kg.
In experiment [9] the test system is Plasmodium berghei. Kind of experiment: Increased mean survival time in drug-sensitive Plasmodium berghei infected mice (Mus musculus) at 640 mg/kg; cured 5 of 5. It is filed as functional, organism-based. Also noted: dose 640 mg/kg.
Experiment [10] concerns Plasmodium berghei. The experiment is described as follows: Increased mean survival time in drug-sensitive Plasmodium berghei infected mice (Mus musculus) at 640 mg/kg; toxic in 5 of 5. It is filed as functional, organism-based. More on the design: dose 640 mg/kg.
Experiment [11] deals with Plasmodium berghei. The experiment is described as follows: Increased mean survival time in drug-sensitive Plasmodium berghei infected mice (Mus musculus) at 320 mg/kg; cured 3 of 5. The experiment is classed as functional, organism-based. Also noted: dose 320 mg/kg.
Experiment [12] concerns Plasmodium berghei. The experiment is described as follows: Increased mean survival time in drug-sensitive Plasmodium berghei infected mice (Mus musculus) at 20 mg/kg dose. It is filed as functional.
Experiment [13] relates to Plasmodium berghei. The experiment is described as follows: Increased mean survival time in drug-sensitive Plasmodium berghei infected mice (Mus musculus) at 160 mg/kg; cured 1 of 5. The experiment is classed as functional, organism-based. Also noted: dose 160 mg/kg.
Experiment [14] relates to Plasmodium berghei. Kind of experiment: Increased mean survival time in drug-sensitive Plasmodium berghei in mice (Mus musculus) at 80 mg/kg dose. The experiment is classed as functional.
The subject of experiment [15] is Plasmodium berghei. The experiment is described as follows: Increased mean survival time in drug-sensitive Plasmodium berghei infected mice (Mus musculus) at 640 mg/kg; cured 2 of 5. It is filed as functional, organism-based. Also noted: dose 640 mg/kg.
Experiment [16] concerns Plasmodium berghei. The experiment is described as follows: Increased mean survival time in drug-sensitive Plasmodium berghei infected mice (Mus musculus) at 640 mg/kg; cured 3 of 5. The experiment is classed as functional, organism-based. Also noted: dose 640 mg/kg.
Experiment [17] relates to Plasmodium berghei. The experiment is described as follows: Increase in mean survival time in drug-sensitive Plasmodium berghei infected mice (Mus musculus) at 160 mg/kg dose; cured 1 of 5. More on the design: dose 160 mg/kg. The experiment is classed as functional, organism-based.
Experiment [18] relates to Plasmodium berghei. Kind of experiment: Increased mean survival time in drug-sensitive Plasmodium berghei infected mice (Mus musculus) at 320 mg/kg; cured 2 of 5. The experiment is classed as functional, organism-based. More on the design: dose 320 mg/kg.
Experiment [19] deals with Plasmodium berghei. Kind of experiment: Increased mean survival time in drug-sensitive Plasmodium berghei infected mice (Mus musculus) at 320 mg/kg dose. The experiment is classed as functional.
Experiment [20] concerns Plasmodium berghei. The experiment is described as follows: Increased mean survival time in drug-sensitive Plasmodium berghei infected mice (Mus musculus) at 80 mg/kg; cured 5 of 5. It is filed as functional, organism-based. Also noted: dose 80 mg/kg.
Experiment [21] relates to Plasmodium berghei. The experiment is described as follows: Increased mean survival time in drug-sensitive Plasmodium berghei infected mice (Mus musculus) at 20 mg/kg; cured 3 of 5. It is filed as functional, organism-based. Also noted: dose 20 mg/kg.
The test system of experiment [22] is Plasmodium berghei. The experiment is described as follows: Increased mean survival time in drug-sensitive Plasmodium berghei infected mice (Mus musculus) at 160 mg/kg; cured 2 of 5. Also noted: dose 160 mg/kg. It is filed as functional, organism-based.
The subject of experiment [23] is Plasmodium berghei. Kind of experiment: Increased mean survival time in drug-sensitive Plasmodium berghei infected mice (Mus musculus) at 40 mg/kg; cured 4 of 5. Also noted: dose 40 mg/kg. The experiment is classed as functional, organism-based.
For experiment [24], the system named is Plasmodium berghei. Kind of experiment: Increased mean survival time in drug-sensitive Plasmodium berghei infected mice (Mus musculus) at 40 mg/kg; toxic in 2 of 5. The experiment is classed as functional, organism-based. Also noted: dose 40 mg/kg.
Experiment [25] has as its system Plasmodium berghei. The experiment is described as follows: Increased mean survival time in drug-sensitive Plasmodium berghei infected mice (Mus musculus) at 160 mg/kg; toxic in 5 of 5. It is filed as functional, organism-based. Also noted: dose 160 mg/kg.
The subject of experiment [26] is Plasmodium berghei. The experiment is described as follows: Increased mean survival time in drug-sensitive Plasmodium berghei infected mice (Mus musculus) at 160 mg/kg; cured 4 of 5. Also noted: dose 160 mg/kg. It is filed as functional, organism-based.
Experiment [27] relates to Plasmodium berghei. Kind of experiment: Increased mean survival time in drug-sensitive Plasmodium berghei infected mice (Mus musculus) at 40 mg/kg; cured 1 of 5. It is filed as functional, organism-based. More on the design: dose 40 mg/kg.
Experiment [28] has as its system Plasmodium berghei. Kind of experiment: Increased mean survival time in drug-sensitive Plasmodium berghei infected mice (Mus musculus) at 40 mg/kg; cured 3 of 5. The experiment is classed as functional, organism-based. Also noted: dose 40 mg/kg.

For the molecule `C/C(=N\N=C(/S)NCc1ccccc1)c1ccccn1`, the results for the Survival time in the experiment with Plasmodium berghei [1], in the experiment with Plasmodium berghei [2] and with Plasmodium berghei [3] were 0.5 days, 10.6 days and 3.7 days, respectively.
Regarding `CC(N/N=C(\S)N1CCCCCC1)c1ccccn1` (stereo not given), the values for the Survival time in the experiment with Plasmodium berghei [1], in the experiment on Plasmodium berghei [4] and with Plasmodium berghei [5] were 2.4 days, “Toxic in 5 of 5 mice” and “Toxic in 5 of 5 mice”, respectively.
Turning to `C/C(=N\N=C(/S)N1CCC(c2ccccc2)CC1)c1ccccn1`, the Survival time result in the experiment on Plasmodium berghei [6] was “Cured 5 of 5 mice”; with Plasmodium berghei [7] it was “Cured 1 of 5 mice”; in the experiment on Plasmodium berghei [1], 0.4 days; in the experiment on Plasmodium berghei [8], “Cured 3 of 5 mice”; in the experiment on Plasmodium berghei [9] it was “Cured 5 of 5 mice”.
For `C/C(=N\NC(=S)N(C)C)c1ccccn1`, the figures for the Survival time in the experiment with Plasmodium berghei [1] and with Plasmodium berghei [10] were 0.5 days and “Toxic in 5 of 5 mice”, respectively.
Consider `CC(N/N=C(\[SeH])N1CCCCCC1)c1ccccn1` (stereo not given), for which the Survival time entry was “Cured 3 of 5 mice; toxic in 2 of 5 mice” in the experiment on Plasmodium berghei [11]; 5.9 days in the experiment on Plasmodium berghei [1]; 0.3 days in the experiment on Plasmodium berghei [12]; “Cured 1 of 5 mice” in the experiment with Plasmodium berghei [13]; 6.1 days in the experiment on Plasmodium berghei [14]; “Cured 2 of 5 mice; toxic in 2 of 5 mice” with Plasmodium berghei [15].
`C/C(=N\N=C(/[SeH])N1CC2CCC(CC2)C1)c1ccccn1`: the Survival time in the experiment with Plasmodium berghei [1] is 0.8 days; in the experiment with Plasmodium berghei [16], “Cured 3 of 5 mice”; with Plasmodium berghei [17], “Cured 1 of 5 mice”; with Plasmodium berghei [12] it was -0.1 days; in the experiment on Plasmodium berghei [18], “Cured 2 of 5 mice”; in the experiment with Plasmodium berghei [14] it was 5.9 days.
Regarding `C/C(=N\NC(=S)N1CCN(c2ccccn2)CC1)c1ccccn1`, the Survival time is 0.7 days in the experiment on Plasmodium berghei [19]; “Toxic in 5 of 5 mice” in the experiment with Plasmodium berghei [10]; “Cured 5 of 5 mice” with Plasmodium berghei [20]; “Cured 3 of 5 mice” in the experiment on Plasmodium berghei [21]; “Cured 2 of 5 mice” with Plasmodium berghei [22]; “Cured 4 of 5 mice” with Plasmodium berghei [23].
`CCOC(=O)N1CCN(/C(S)=N/N=C(\C)c2ccccn2)CC1`: the values for the Survival time entry with Plasmodium berghei [10], in the experiment with Plasmodium berghei [24] and with Plasmodium berghei [25] were “Toxic in 5 of 5 mice”, “Cured 2 of 5 mice; toxic in 2 of 5 mice” and “Toxic in 5 of 5 mice”, respectively.
In the case of `CC(N/N=C(\S)N1CCC(c2ccccc2)CC1)c1ccccn1` (stereo not given), the Survival time entry in the experiment on Plasmodium berghei [5] was “Toxic in 5 of 5 mice”; in the experiment on Plasmodium berghei [26] it was “Cured 4 of 5 mice”; with Plasmodium berghei [27], “Cured 1 of 5 mice”.
Turning to `C/C(=N\N=C(/S)N1CCC(C)CC1)c1ccccn1`, the Survival time result with Plasmodium berghei [10] was “Toxic in 5 of 5 mice”; in the experiment with Plasmodium berghei [28], “Cured 3 of 5 mice”; in the experiment on Plasmodium berghei [25], “Toxic in 5 of 5 mice”.
